Where a name gives a salt, the structure may show the parent alone.
Legend:
HCV GT1b replicon = experiment: microbe, parasite or virus in culture; type: cell-based; details: Hepatitis C virus, Huh-7, 72 h, stable replicon in Huh7 cells, 3 days, read-out: Individual EC50
Protocol: (§1) Huh7 cells were maintained in DMEM supplemented with 10% FBS, 1% NEAA, 1% L-Glutamine and 1% Penicillin-Streptomycin. The stable HCV GT1a and 1b replicon cells were generated by transfection of Huh7 cells with in vitro transcribed HCV replicon RNA transcripts from replicon DNA constructs and were selected with 250 μg/ml of G418. The GT1b/3a NS5B chimeric replicons were constructed with the GT1b replicon as a backbone. GT1b/3a NS5B replicon RNAs were in vitro transcribed using the replicon plasmid DNAs and used to transiently transfect Huh7 cells by electroporation.
(§2) The final concentration of DMSO in the cell culture medium was 0.5%. Compounds were individually tested for their inhibitory activity in stably-transfected GT1a and GT1b replicons and in transiently-transfected GT1b/3a NS5B chimeric replicons in duplicate at 9 concentrations with a series of 4-fold dilutions starting at 10,000 nM. Replicon cells were seeded (8,000 cells/well for GT1a and 1b; 10,000 cells/well for GT1b/3a NS5B) in 96-well plates containing serially diluted compounds and cultured at 37° C. and 5% CO2 for 3 days. CellTiter-Fluor was used to detect the fluorescence signal and the raw data (RFU) was used for calculating cell viability using the equation below: […]
(§3) where CPD is a signal from a well containing a test compound, ZPE is the average of signals from DMSO control wells and HPE is the average of signals from medium control wells.
(§4) The data were analyzed using CompuSyn software (ComboSyn, Inc., Paramus, N.J.) to obtain the concentrations of the individual compounds required to achieve 50% cytotoxicity (CC50) and 50% (EC50) and 90% (EC90) antiviral efficacy. […]
(§5) In Example 6, Huh7 cells were transiently transfected with replicon RNA by electroporation and seeded at a density of 10,000 cells/well in 96-well plates. HCV GT1a and GT1b replicons stable cells were seeded at a density of 8,000 cells/well in 96-well plates. […]

[1] = tested on: GT1b_3a-NS5B chimeric HCV replicon; experiment: microbe, parasite or virus in culture; type: cell-based; details: Hepatitis C virus, Huh-7, 72 h, read-out: Individual EC50
Protocol: as §1, §2, §3, §4, §5

HCV GT1a replicon = experiment: microbe, parasite or virus in culture; type: cell-based; details: Hepatitis C virus, Huh-7, 72 h, stable replicon in Huh7 cells, 3 days, read-out: Individual EC50
Protocol: as §1, §2, §3, §4, §5

HCV GT1 = details: non-cirrhotic patients, 600 mg QD, seven days; cited from earlier work
HCV GT1 or HCV GT3 = details: CPA cirrhosis, QD for seven days; cited from earlier work
HCV GT3 = details: non-cirrhotic patients, 600 mg QD, seven days; cited from earlier work
[2] = Stability of Compound 2-A in stability chambers; type: physicochemical
Protocol: The stability of Compound 2-A was measured under three different conditions: 1) open container; 2) PE/ALU bag where the PE bag is closed with clips and the ALU bag is sealed by thermos-sealing; and 3) PE/ALU bag with desiccant where the PE bag is closed with plastic clip, the ALU bag is sealed by the thermos-sealing, and 10 g of silica gel is placed between the bags. The open container conditions were conducted with two different batches of Compound 2-A. The results of the stability studies are shown in Table 5A, Table 5B, Table 6, and Table 7.

[3] = Hygroscopicity in climatic cabinet; type: physicochemical
Protocol: Compound 2-A was characterized by ^1HNMR, ^13CNMR, FI-IR, and mass spectrum in addition to XRPD (FIG. 1A) and differential scanning calorimetry (DSC) (FIG. 1B). The hygroscopicity was measured by placing a sample in a climatic cabinet set at 25±1° C./80±2% RH for 24 hours. The water content was increased from 3.3% to 9.4%.

[4] = 25° C./60% RH and 40° C./75% RH
[5] = Batch No. 1, open container, 25° C./60% RH, 7 days
[6] = Batch No. 1, open container, 25° C./60% RH, 14 days
[7] = Batch No. 1, open container, 25° C./60% RH, 28 days
[8] = Batch No. 1, open container, 30° C./65% RH, 7 days
[9] = Batch No. 1, open container, 30° C./65% RH, 14 days
[10] = Batch No. 1, open container, 30° C./65% RH, 28 days
[11] = Batch No. 1, open container, 40° C./75% RH, 7 days
[12] = Batch No. 1, open container, 40° C./75% RH, 14 days
[13] = Batch No. 1, open container, 40° C./75% RH, 28 days
[14] = Batch No. 1, open container, Initial
[15] = Batch No. 2, PE/ALU bag, 25° C./60% RH, 7 days
[16] = Batch No. 2, PE/ALU bag, 25° C./60% RH, 16 days
[17] = Batch No. 2, PE/ALU bag, 40° C./75% RH, 7 days
[18] = Batch No. 2, PE/ALU bag, 40° C./75% RH, 16 days
[19] = Batch No. 2, PE/ALU bag, Initial
[20] = Batch No. 2, PE/ALU with desiccant, 25° C./60% RH, 7 days
[21] = Batch No. 2, PE/ALU with desiccant, 25° C./60% RH, 16 days
[22] = Batch No. 2, PE/ALU with desiccant, 40° C./75% RH, 7 days
[23] = Batch No. 2, PE/ALU with desiccant, 40° C./75% RH, 16 days
[24] = Batch No. 2, PE/ALU with desiccant, Initial
[25] = Batch No. 2, open container, 25° C./60% RH, 7 days
[26] = Batch No. 2, open container, 25° C./60% RH, 16 days
[27] = Batch No. 2, open container, 30° C./65% RH, 7 days
[28] = Batch No. 2, open container, 30° C./65% RH, 16 days
[29] = Batch No. 2, open container, 40° C./75% RH, 7 days
[30] = Batch No. 2, open container, 40° C./75% RH, 16 days
[31] = Batch No. 2, open container, Initial

Which results are given for `CNc1nc(N)nc2c1ncn2[C@@H]1O[C@H](CO[P@@](=O)(N[C@@H](C)C(=O)OC(C)C)Oc2ccccc2)[C@@H](O)[C@@]1(C)F` [Compound 1-A, hemi-sulfate salt of isopropyl((S)-(((2R,3R,4R,5R)-5-(2-amino-6-(methylamino)-9H-purin-9-yl)-4-fluoro-3-hydroxy-4-methyltetrahydrofuran-2-yl)methoxy)(phenoxy)phosphoryl)-L-alaninate]?
EC50 (HCV GT1b replicon): 2.69 nM; EC50 [1]: 1.68 nM; EC50 (HCV GT1a replicon): 2.83 nM; mean maximum HCV RNA reduction (HCV GT1): 4.4 log10 IU/mL; mean maximum HCV RNA reduction (HCV GT1 or HCV GT3): 4.4 log10 IU/mL; mean maximum HCV RNA reduction (HCV GT3): 4.6 log10 IU/mL

Which EC50 (HCV GT1b replicon) does the source give for `COC(=O)N[C@H](C(=O)N1CCC[C@H]1c1nc(-c2ccc(-c3ccc(-c4c[nH]c([C@@H]5CCCN5C(=O)[C@@H](NC(=O)OC)C(C)C)n4)c4c3OCO4)cc2)c[nH]1)C(C)C` [Compound 2, methyl N-[(2S)-1-[(2S)-2-[5-[4-[7-[2-[(2S)-1-[(2 S)-2-(methoxycarbonylamino)-3-methylbutanoyl]pyrrolidin-2-yl]-1H-imidazol-5-yl]-1,3-benzodioxol-4-yl]phenyl]-1H-imidazol-2-yl]pyrrolidin-1-yl]-3-methyl-1-oxobutan-2-yl]carbamate] here?
The EC50 was 0.014 nM.

And the EC50 [1]?
Its EC50 is 0.0029 nM.

And the EC50 (HCV GT1a replicon)?
Its EC50 is 0.03 nM.

What does the source list for `COC(=O)N[C@H](C(=O)N1CCC[C@H]1c1nc(-c2ccc(-c3ccc(-c4c[nH]c([C@@H]5CCCN5C(=O)[C@@H](NC(=O)OC)C(C)C)n4)c4c3OCO4)cc2)c[nH]1)C(C)C` [Compound 2-A]?
purity change [2, 4]: not changed; water content change [2, 4]: slowly increased; Appearance [2, 5]: Pale-yellow solid; Purity (HPLC) [2, 5]: 98.45%; Water (KF) [2, 5]: 6.14%; XRPD [2, 5]: Consistent; Appearance [2, 6]: Pale-yellow solid; Purity (HPLC) [2, 6]: 98.61%; Water (KF) [2, 6]: 6.28%; Appearance [2, 7]: Pale-yellow solid; Purity (HPLC) [2, 7]: 98.58%; Water (KF) [2, 7]: 5.95%; Appearance [2, 8]: Pale-yellow solid; Purity (HPLC) [2, 8]: 98.40%; Water (KF) [2, 8]: 6.73%; XRPD [2, 8]: Consistent; Appearance [2, 9]: Pale-yellow solid; Purity (HPLC) [2, 9]: 98.47%; Water (KF) [2, 9]: 6.80%; Appearance [2, 10]: Pale-yellow solid; Purity (HPLC) [2, 10]: 98.59%; Water (KF) [2, 10]: 6.49%; Appearance [2, 11]: Pale-yellow solid; Purity (HPLC) [2, 11]: 98.45%; Water (KF) [2, 11]: 7.13%; XRPD [2, 11]: Consistent; Appearance [2, 12]: Pale-yellow solid; Purity (HPLC) [2, 12]: 98.51%; Water (KF) [2, 12]: 7.67%; Appearance [2, 13]: Pale-yellow solid; Purity (HPLC) [2, 13]: 98.53%; Water (KF) [2, 13]: 6.96%; Appearance [2, 14]: Pale-yellow solid; Purity (HPLC) [2, 14]: 98.39%; Water (KF) [2, 14]: 3.11%; XRPD [2, 14]: Crystalline; Appearance [2, 15]: White powder; Purity (HPLC) [2, 15]: 99.36%; Water (KF) [2, 15]: 5.18%; Appearance [2, 16]: White powder; Purity (HPLC) [2, 16]: 99.41%; Water (KF) [2, 16]: 5.56%; Appearance [2, 17]: White powder; Purity (HPLC) [2, 17]: 99.37%; Water (KF) [2, 17]: 5.42%; Appearance [2, 18]: White powder; Purity (HPLC) [2, 18]: 99.42%; Water (KF) [2, 18]: 5.91%; Appearance [2, 19]: White powder; Purity (HPLC) [2, 19]: 99.39%; Water (KF) [2, 19]: 4.48%; Appearance [2, 20]: White powder; Purity (HPLC) [2, 20]: 99.38%; Water (KF) [2, 20]: 5.46%; Appearance [2, 21]: White powder; Purity (HPLC) [2, 21]: 99.41%; Water (KF) [2, 21]: 5.83%; Appearance [2, 22]: White powder; Purity (HPLC) [2, 22]: 99.37%; Water (KF) [2, 22]: 5.51%; Appearance [2, 23]: White powder; Purity (HPLC) [2, 23]: 99.42%; Water (KF) [2, 23]: 6.90%; Appearance [2, 24]: White powder; Purity (HPLC) [2, 24]: 99.39%; Water (KF) [2, 24]: 4.48%; Appearance [2, 25]: White powder; Purity (HPLC) [2, 25]: 99.37%; Water (KF) [2, 25]: 6.01%; Appearance [2, 26]: White powder; Purity (HPLC) [2, 26]: 99.41%; Water (KF) [2, 26]: 7.69%; Appearance [2, 27]: White powder; Purity (HPLC) [2, 27]: 99.38%; Water (KF) [2, 27]: 7.50%; Appearance [2, 28]: White powder; Purity (HPLC) [2, 28]: 99.41%; Water (KF) [2, 28]: 6.98%; Appearance [2, 29]: White powder; Purity (HPLC) [2, 29]: 99.38%; Water (KF) [2, 29]: 7.96%; Appearance [2, 30]: White powder; Purity (HPLC) [2, 30]: 99.42%; Water (KF) [2, 30]: 7.03%; Appearance [2, 31]: White powder; Purity (HPLC) [2, 31]: 99.39%; Water (KF) [2, 31]: 4.48%; water content ([3]; after 24 hours at 25±1° C./80±2% RH): 9.4%; water content ([3]; before storage): 3.3%

Source: US20200179415A1, “HIGHLY ACTIVE DRUG COMBINATION FOR TREATMENT OF HEPATITIS C VIRUS” (Atea Pharmaceuticals, Inc., priority 2018, published 2020)
